“And” between values parts separate entries of the source, which are not always exact repeats. Identical values can stand only once. “Also recorded” adds a separate entry of the source. Square brackets hold non-standard residues; d marks the D form. Peptide text beside a SMILES is read from it.
What was measured:
[1] = test system: THP1 cells stimulated with poly (I: C) (TLR3 and RIG-I/MDA-5 pathways); assay: qPCR of IFNB1 mRNA in THP1 cells stimulated by poly (I: C); assay type: cell-based, human
Source text: We next evaluated the inhibitory effect of XQ2 against cGAS in murine fibroblast L929 cells, macrophage RAW264.7 cells and primary bone marrow-derived macrophages (BMDMs) from C57BL/6 mice.
(§1) The indicated cells were stimulated with either ISD (Sangon Biotech), HSV-1 (Provided by Dr. Zhengfan Jiang), HSV60mer (Sangon Biotech), SATE-cddA[70], 2’3’-cGAMP (Invivogen, Cat# tlrl-nacga23-1), ADU-S100 (MedChemExpress, Cat# HY-12885A) or Poly(I:C) (Invivogen, Cat# tlrl-pic) after XQ2 or XQ2B treatment. Total RNA was isolated from indicated cells that incubated with the drugs for indicated time or mice tissues by using NucleoZOL reagent (MACHEREY-NAGEL) according to the manufacturer’s instructions. The quantifications of mRNA levels were carried out by real-time PCR using a PerfectStart® Uni RT&qPCR Kit (TransGen Biotech) on the QuantStudio 5 qPCR machine (Applied Biosystems). Samples were carried out in triplicate and the target CT values were normalized to GAPDH CT values. Primers of qPCR used in this study can be found in Supplementary Table S2.

primary human PBMCs = assay: qPCR of IFNB1 and IL6 mRNA in ISD-stimulated PBMCs; assay type: cell-based; parameters: key to IFNB1 mRNA, qPCR, Fig. 2c / IL6 mRNA, qPCR, Fig. 2c / IFNB1 mRNA (Fig. S7f) / IL6 mRNA (Fig. S7f): relative mRNA level, target CT normalized to GAPDH CT; settings: 10 μM
Procedure: as §1

[2] = test system: macrophage RAW264.7 cells; assay: qPCR of Ifnb1/Cxcl10/Il6 mRNA in RAW264.7 cells (ISD or HSV-1); assay type: cell-based, mouse; parameters: key to Ifnb1 mRNA (Fig. S2c) / Cxcl10 mRNA (Fig. S2c) / Ifnb1 mRNA (Fig. S2d) / Cxcl10 mRNA (Fig. S2d) / Ifnb1 mRNA (Fig. S7g) / Cxcl10 mRNA (Fig. S7g) / Il6 mRNA (Fig. S7g): mRNA level normalized to GAPDH (relative expression)
Procedure: as §1, with “S2. […]” for “S2.”
(c) L929, p = 0.0005 (Ifnb1),
BMDMs, p = 0.0001 (Ifnb1), p < 0.0001 (Cxcl10).
representative of three independent experiments in (a-g). (Data are presented as mean ± SD, n = 3 independent
Source data are provided as a Source Data file.

[3] = Cell viability (CCK-8), cytotoxicity; settings: human, THP1 cells
Procedure: (§2) Cell viability was measured by cell counting kit-8 (TargetMol) according to the manufacturer’s instructions.
(§3) Supplementary Fig. 2. […]
(§4) (e-g) THP1 cells (e), L929 cells (f) and RAW264.7 cells (g) were exposed to the indicated doses of XQ2 for 48h, the cell viability was measured by CCK8 assay. Data are representative of three independent experiments in (a-g). (Data are presented as mean ± SD, n = 3 independent samples in (a-g), **p < 0.01, ***p < 0.001, ****p < 0.0001 using one-way ANOVA with Dunnett’s post hoc test).
(§5) Source data are provided as a Source Data file. […]
(§6) Relative viability(%) XQ2B
(§7) Supplementary Fig. 7. […] (a) THP1 cells were exposed to the indicated doses of XQ2 or XQ2B for 48h. The cell viability was measured by CCK8 assay. […]
(§8) Data are representative of three independent experiments with similar results in (e), or three independent experiments in (a -d, f, g) . (Data are presented as mean ± SD, n = 3 independent samples in (a-d, f, g), ns, not significant, **p < 0.01, ***p < 0.001, ****p < 0.0001 using one-way ANOV A with Dunnett’s post hoc test). Source data are provided as a Source Data file.

THP1 cells = assay: Cell viability (CCK-8), cytotoxicity; settings: for Cell viability (Fig. S2e): THP1 (48h)
Procedure: as §2, §3, §4, §5, §6, §7, §8

HSV-1 in THP1 cells = assay: HSV-1(UL5) mRNA by qPCR (virus infection of cells); assay type: cell-based, herpes simplex virus-1; parameters: key to HSV-1(UL5) mRNA, qPCR, Fig. 5d / HSV-1(UL5) mRNA (Fig. S8e): relative mRNA level, target CT normalized to GAPDH CT; settings: for HSV-1(UL5) mRNA, qPCR, Fig. 5d: XQ2 10 μM
Procedure: as §1

CC(C)C[C@@H]1NC(=O)[C@H](CCCNC(=N)N)NC(=O)[C@H](C(C)C)NC(=O)[C@@H]2CCCN2C(=O)[C@@H](Cc2ccccc2)NC(=O)[C@H](CC(C)C)NC(=O)[C@H](CCCNC(=N)N)NC(=O)[C@H](C(C)C)NC(=O)[C@H](C)NC(=O)[C@@H](Cc2ccccc2)NC1=O [XQ2, Cyclo (LfAVRLfPVR)] (cyclo(L[dF]AVRL[dF]PVR))
poly (I: C)-induced IFNB1 expression ([1]; THP1, 10 μM): did not affect the expression of IFNΒ1 induced by poly (I: C) | IFNB1 mRNA, qPCR, Fig. 2b ([1]; THP1, Poly(I:C), 10 μM): 400.477 and 440.107 and 373.524 | ISD-induced IFNB1 and IL6 expression in PBMCs (primary human PBMCs): markedly suppressed the expression of IFNB1 and IL6; also recorded: significantly inhibit the activation of cGAS induced by ISD | IFNB1 mRNA, qPCR, Fig. 2c (primary human PBMCs; PBMCs, ISD): 362.804 and 380.938 and 448.513 | IL6 mRNA, qPCR, Fig. 2c (primary human PBMCs; PBMCs, ISD): 261.548 and 423.427 and 399.836 | Ifnb1 and Cxcl10 expression induced by ISD and HSV-1 ([2]; RAW264.7, 10 μM): significantly inhibited the expression of Ifnb1 and its downstream gene Cxcl10 | Cxcl10 mRNA (Fig. S2d) ([2]; RAW264.7, HSV-1+XQ2): 226.869 and 260.086 and 204.298 | Ifnb1 mRNA (Fig. S2d) ([2]; RAW264.7, HSV-1+XQ2): 1317.92 and 1543.45 and 1644.53 | Cxcl10 mRNA (Fig. S2c) ([2]; RAW264.7, ISD+XQ2): 1626.72 and 1806.59 and 1855.72 | Ifnb1 mRNA (Fig. S2c) ([2]; RAW264.7, ISD+XQ2): 12350.6 and 12954.9 and 11525.9 | Cxcl10 mRNA (Fig. S2c) ([2]; RAW264.7, XQ2 alone): 3.511 and 3.569 and 3.235 | Cxcl10 mRNA (Fig. S2d) ([2]; RAW264.7, XQ2 alone): 3.511 and 3.569 and 3.235 | Ifnb1 mRNA (Fig. S2c) ([2]; RAW264.7, XQ2 alone): 1.57 and 1.726 and 1.836 | Ifnb1 mRNA (Fig. S2d) ([2]; RAW264.7, XQ2 alone): 1.57 and 1.726 and 1.836 | viability at 48 h, 0.16 µM ([3]; Cell viability (Fig. S2e), THP1 (48h), XQ2 0.16 μM): 87.4% | viability at 48 h, 0.31 µM ([3]; Cell viability (Fig. S2e), THP1 (48h), XQ2 0.31 μM): 103% | viability at 48 h, 0.63 µM ([3]; Cell viability (Fig. S2e), THP1 (48h), XQ2 0.63 μM): 94.8% | viability at 48 h, 1.25 µM ([3]; Cell viability (Fig. S2e), THP1 (48h), XQ2 1.25 μM): 95.7% | viability at 48 h, 2.5 µM ([3]; Cell viability (Fig. S2e), THP1 (48h), XQ2 2.5 μM): 92.5% | viability at 48 h, 5 µM ([3]; Cell viability (Fig. S2e), THP1 (48h), XQ2 5 μM): 90.4% | viability at 48 h, 10 µM ([3]; Cell viability (Fig. S2e), THP1 (48h), XQ2 10 μM): 93.6% | viability at 48 h, 0.3125 µM ([3]; Cell viability (Fig. S7a), XQ2 312.5 nM): 103% | viability at 48 h, 0.625 µM ([3]; Cell viability (Fig. S7a), XQ2 625 nM): 94.8% | viability at 48 h, 1.25 µM ([3]; Cell viability (Fig. S7a), XQ2 1250 nM): 95.7% | viability at 48 h, 2.5 µM ([3]; Cell viability (Fig. S7a), XQ2 2500 nM): 92.5% | viability at 48 h, 5 µM ([3]; Cell viability (Fig. S7a), XQ2 5000 nM): 90.4% | viability at 48 h, 10 µM ([3]; Cell viability (Fig. S7a), XQ2 10000 nM): 93.6% | viability at 48 h, 20 µM ([3]; Cell viability (Fig. S7a), XQ2 20000 nM): 56.9% | viability at 48 h, 40 µM ([3]; Cell viability (Fig. S7a), XQ2 40000 nM): 4.01% | viability at 48 h, 80 µM ([3]; Cell viability (Fig. S7a), XQ2 80000 nM): 6.79% | viability at 48 h, 160 µM ([3]; Cell viability (Fig. S7a), XQ2 160000 nM): 6.84% | viability at 48 h, 320 µM ([3]; Cell viability (Fig. S7a), XQ2 320000 nM): 6.36% | Cell viability (Fig. S2e) (THP1 cells; XQ2 0.16 μM): 87.186 and 98.2321 | Cell viability (Fig. S2e) (THP1 cells; XQ2 0.31 μM): 93.9161 and 92.7457 | Cell viability (Fig. S2e) (THP1 cells; XQ2 0.63 μM): 102.329 and 90.4779 | Cell viability (Fig. S2e) (THP1 cells; XQ2 1.25 μM): 94.1356 and 101.451 | Cell viability (Fig. S2e) (THP1 cells; XQ2 2.5 μM): 93.4772 and 103.426 | Cell viability (Fig. S2e) (THP1 cells; XQ2 5 μM): 89.1612 and 96.4765 | Cell viability (Fig. S2e) (THP1 cells; XQ2 10 μM): 102.841 and 97.9395 | IC50 (THP1 cells; read-out: IC50, cell viability (CCK8), Fig. S7a, THP1, 48h): 24.3 ± 8.9 µM | HSV-1 infection of THP1 cells, HSV1(UL5) mRNA (HSV-1 in THP1 cells; 10 μM): substantially facilitated HSV-1 infection of THP1 cells | HSV-1(UL5) mRNA, qPCR, Fig. 5d (HSV-1 in THP1 cells; HSV-1(1×104)24h): 1.256 and 1.311 and 1.284 | HSV-1(UL5) mRNA, qPCR, Fig. 5d (HSV-1 in THP1 cells; HSV-1(1×104)48h): 9.927 and 7.927 and 10.0304 | HSV-1(UL5) mRNA, qPCR, Fig. 5d (HSV-1 in THP1 cells; HSV-1(2×104)24h): 4.976 and 4.739 and 4.656 | HSV-1(UL5) mRNA, qPCR, Fig. 5d (HSV-1 in THP1 cells; HSV-1(2×104)48h): 18.9511 and 21.7278 and 21.8028
